Reference: ChEMBL document CHEMBL1132775, “N1-(Benzenesulfonyl)tryptamines as novel 5-HT6 antagonists” (Bioorg Med Chem Lett, 2000)

Tests used:
[1] = biological target: 5-hydroxytryptamine receptor 2A (Rattus norvegicus, UniProt P14842); assay: Compound was evaluated for its binding affinity for rat 5-hydroxytryptamine 2A receptor
[2] = Compound was evaluated for its binding affinity for human 5-hydroxytryptamine 3 receptor
[3] = biological target: 5-hydroxytryptamine receptor 7 (Homo sapiens, UniProt P34969); assay: Compound was evaluated for its binding affinity for human 5-hydroxytryptamine 7 receptor
Sequence of 5-hydroxytryptamine receptor 7 (P34969 whole entry): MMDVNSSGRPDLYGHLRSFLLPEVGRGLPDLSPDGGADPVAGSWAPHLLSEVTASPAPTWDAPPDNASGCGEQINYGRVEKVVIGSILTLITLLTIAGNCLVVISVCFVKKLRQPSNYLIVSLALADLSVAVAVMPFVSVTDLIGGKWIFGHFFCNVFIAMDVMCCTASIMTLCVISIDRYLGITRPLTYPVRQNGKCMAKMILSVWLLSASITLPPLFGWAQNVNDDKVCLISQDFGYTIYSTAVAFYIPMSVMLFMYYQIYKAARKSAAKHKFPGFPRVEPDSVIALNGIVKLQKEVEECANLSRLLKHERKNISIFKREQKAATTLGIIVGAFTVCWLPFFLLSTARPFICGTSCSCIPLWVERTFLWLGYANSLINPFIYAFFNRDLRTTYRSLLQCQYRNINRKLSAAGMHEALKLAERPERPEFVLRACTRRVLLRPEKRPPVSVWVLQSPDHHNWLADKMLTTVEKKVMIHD

[4] = biological target: 5-hydroxytryptamine receptor 1E (Homo sapiens, UniProt P28566); assay: Compound was evaluated for its binding affinity for human 5-hydroxytryptamine 1E receptor
Sequence of 5-hydroxytryptamine receptor 1E (P28566 whole entry): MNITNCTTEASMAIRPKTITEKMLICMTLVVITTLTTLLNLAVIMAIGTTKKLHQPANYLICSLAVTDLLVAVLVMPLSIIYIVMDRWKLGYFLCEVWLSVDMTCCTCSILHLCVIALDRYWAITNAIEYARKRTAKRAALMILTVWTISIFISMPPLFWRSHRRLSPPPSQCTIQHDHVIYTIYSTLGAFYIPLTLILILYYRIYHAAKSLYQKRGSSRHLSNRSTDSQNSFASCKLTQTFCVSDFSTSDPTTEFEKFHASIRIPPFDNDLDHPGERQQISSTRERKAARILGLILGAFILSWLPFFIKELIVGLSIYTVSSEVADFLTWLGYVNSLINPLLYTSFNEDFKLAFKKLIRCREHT

[5] = biological target: T1, 5-hydroxytryptamine receptor 6 (Homo sapiens, UniProt P50406)
T1 sequence (P50406 whole entry): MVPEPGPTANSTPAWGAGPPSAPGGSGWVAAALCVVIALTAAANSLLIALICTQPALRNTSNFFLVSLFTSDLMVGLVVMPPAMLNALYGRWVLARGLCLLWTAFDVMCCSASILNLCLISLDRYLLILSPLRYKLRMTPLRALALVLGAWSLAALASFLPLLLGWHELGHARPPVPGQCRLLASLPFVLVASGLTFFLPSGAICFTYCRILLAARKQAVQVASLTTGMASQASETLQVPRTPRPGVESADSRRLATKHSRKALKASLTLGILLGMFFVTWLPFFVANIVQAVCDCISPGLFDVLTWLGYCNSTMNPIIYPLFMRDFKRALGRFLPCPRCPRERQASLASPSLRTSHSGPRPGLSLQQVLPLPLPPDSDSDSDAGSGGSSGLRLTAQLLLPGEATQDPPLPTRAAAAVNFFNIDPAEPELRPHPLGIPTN

[6] = biological target: T2, 5-hydroxytryptamine receptor 2C (Rattus norvegicus, UniProt P08909); assay: Compound was evaluated for its binding affinity for rat 5-hydroxytryptamine 2C receptor
T2 sequence (P08909 whole entry): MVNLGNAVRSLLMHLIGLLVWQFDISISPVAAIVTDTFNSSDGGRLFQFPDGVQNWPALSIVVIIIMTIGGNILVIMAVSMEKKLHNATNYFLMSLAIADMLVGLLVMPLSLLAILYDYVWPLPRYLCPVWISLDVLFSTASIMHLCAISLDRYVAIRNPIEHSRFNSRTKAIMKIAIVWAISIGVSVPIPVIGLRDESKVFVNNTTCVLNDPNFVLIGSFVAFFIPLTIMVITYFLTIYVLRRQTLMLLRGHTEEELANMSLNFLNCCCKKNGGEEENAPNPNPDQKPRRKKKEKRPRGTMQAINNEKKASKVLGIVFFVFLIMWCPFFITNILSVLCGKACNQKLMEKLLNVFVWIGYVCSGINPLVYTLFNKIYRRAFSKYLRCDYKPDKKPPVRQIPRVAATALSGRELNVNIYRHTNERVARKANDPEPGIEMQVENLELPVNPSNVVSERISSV

[7] = biological target: 5-hydroxytryptamine receptor 1B (Homo sapiens, UniProt P28222); assay: Compound was evaluated for its binding affinity for human 5-hydroxytryptamine 1B receptor
Sequence of 5-hydroxytryptamine receptor 1B (P28222 whole entry): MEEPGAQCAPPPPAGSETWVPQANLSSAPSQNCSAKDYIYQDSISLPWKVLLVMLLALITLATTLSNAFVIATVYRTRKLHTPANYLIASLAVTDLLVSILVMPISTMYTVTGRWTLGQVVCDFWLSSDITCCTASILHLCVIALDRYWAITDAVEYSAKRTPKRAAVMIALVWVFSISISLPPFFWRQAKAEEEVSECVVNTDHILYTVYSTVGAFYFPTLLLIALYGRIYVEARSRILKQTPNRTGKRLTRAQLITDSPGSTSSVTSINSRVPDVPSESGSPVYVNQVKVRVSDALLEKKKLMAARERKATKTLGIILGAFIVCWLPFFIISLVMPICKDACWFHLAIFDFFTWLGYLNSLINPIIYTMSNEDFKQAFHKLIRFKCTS

[8] = biological target: T1, 5-hydroxytryptamine receptor 6; assay: Binding affinity against human 5-hydroxytryptamine 6 receptor stably transfected to HEK 293 human embryonic kidney cells using [3H]-lysergic acid diethylamide as radioligand; assay type: cell-based, HEK293

Sequence of 5-hydroxytryptamine receptor 2A (P14842 whole entry): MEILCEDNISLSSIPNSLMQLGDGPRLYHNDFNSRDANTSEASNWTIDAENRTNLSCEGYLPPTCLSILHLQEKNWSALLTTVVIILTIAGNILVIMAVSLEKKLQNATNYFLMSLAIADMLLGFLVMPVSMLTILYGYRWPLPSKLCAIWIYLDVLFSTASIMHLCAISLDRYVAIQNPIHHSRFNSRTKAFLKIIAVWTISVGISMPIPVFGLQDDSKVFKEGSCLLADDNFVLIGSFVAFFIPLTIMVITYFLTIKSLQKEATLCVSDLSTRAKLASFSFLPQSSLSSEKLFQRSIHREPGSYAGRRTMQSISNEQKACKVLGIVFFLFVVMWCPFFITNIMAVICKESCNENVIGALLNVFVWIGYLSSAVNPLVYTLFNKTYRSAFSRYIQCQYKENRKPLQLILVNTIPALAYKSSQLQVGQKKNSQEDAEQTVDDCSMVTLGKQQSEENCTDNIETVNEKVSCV

SMILES	Ki [8] [nM]	also measured
COc1ccc2c(c1)c(CCN(C)C)cn2S(=O)(=O)c1ccccc1	2.3	Ki [1]: 130 nM; Ki [2]: 2390 nM; Ki [3]: 600 nM; Ki [4]: 4220 nM; pA2 [5]: 8.88; Ki [6]: 23 nM; Ki [7]: 9210 nM
COc1ccc(OC)c(S(=O)(=O)n2cc(CCN(C)C)c3c(OC)cccc32)c1	7.4	–
COc1cccc2c(CCN(C)C)cn(S(=O)(=O)c3ccc4ccccc4c3)c12	5	–
COc1ccc2c(c1)c(CCN(C)C)cn2S(=O)(=O)c1ccc2ccccc2c1	1.6	–
COc1ccc2c(c1)c(CCN(C)C)cn2S(=O)(=O)c1ccc(Cl)cc1	3.1	–
COc1ccc(S(=O)(=O)n2cc(CCN(C)C)c3cccc(OC)c32)cc1	93	–
COc1ccc(OC)c(S(=O)(=O)n2cc(CCN(C)C)c3cccc(OC)c32)c1	183	–
COc1ccc(OC)c(S(=O)(=O)n2cc(CCN(C)C)c3cc(OC)ccc32)c1	1.3	–
COc1ccc(OC)c(S(=O)(=O)n2cc(CCN(C)C)c3ccc(OC)cc32)c1	9.5	–
COc1ccc(S(=O)(=O)n2cc(CCN(C)C)c3cc(OC)ccc32)cc1	8	–
COc1ccc2c(c1)c(CCN(C)C)cn2S(=O)(=O)c1cccc2ccccc12	0.9	–
COc1cccc2c(CCN(C)C)cn(S(=O)(=O)c3ccc(Cl)cc3)c12	45	–
